This is an account of results in patent publication US20220282217A1, “COMPOSITIONS AND METHODS FOR PREPARING T CELL COMPOSITIONS AND USES THEREOF” (priority 2019, published 2022).

Where a SMILES comes first, the peptide text is derived from it.

In one assay the target is HLA-A02.01 (Homo sapiens, UniProt P04439, D140Y/D185E/D98H/E176V/E277Q/G131W/G231S/I119V/I121R/I166T/I218V/L300P/L318F/N151K/N90K/P208A/P217A/Q86G/Q94H/R138H/R169H/T345S). The assay can be described thus: Class I MHC peptide binding affinity (displacement of radiolabeled reference peptide). The settings on record: Observed Affinity (IC50; (nM)), allele A02.01. The gist of the method:
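Steps: form MHCI complexes carrying labeled reference peptide; add competitor peptides at graded doses; incubate 2 days; separate complex-bound from free label by size-exclusion chromatography and count what remains bound.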
For orientation: IC50 means the point on the concentration scale where inhibition reaches its midpoint. `CC(C)C[C@H](NC(=O)[C@H](CC(=O)O)NC(=O)[C@H](CO)NC(=O)[C@H](CCC(N)=O)NC(=O)[C@@H](N)CCC(N)=O)C(=O)N[C@@H](CCC(N)=O)C(=O)N1CCC[C@H]1C(=O)N1CCC[C@H]1C(=O)N[C@@H](C)C(=O)O` (H-QQSDLQPPA-OH; N-terminus and C-terminus assumed): the IC50 came to 70 nM.

In the case of `CC[C@H](C)[C@H](NC(=O)[C@H](CC(=O)O)NC(=O)[C@H](CC(C)C)NC(=O)[C@@H](N)CC(C)C)C(=O)N[C@@H](CC(C)C)C(=O)N[C@@H](CC(=O)O)C(=O)N[C@H](C(=O)N[C@@H](C)C(=O)NCC(=O)N[C@@H](CC(C)C)C(=O)O)[C@@H](C)O` (H-LLDILDTAGL-OH; N-terminus and C-terminus assumed), the IC50 was 716 nM.

For the compound `CC[C@H](C)[C@H](NC(=O)[C@H](CC(N)=O)NC(=O)[C@H](CCSC)NC(=O)[C@@H](N)Cc1c[nH]cn1)C(=O)N[C@@H](C)C(=O)N[C@@H](CC(N)=O)C(=O)N[C@@H](CC(C)C)C(=O)N[C@@H](CC(C)C)C(=O)NCC(=O)N[C@@H](C)C(=O)O` (H-HMNIANLLGA-OH; N-terminus and C-terminus assumed), the concentration for half-maximal inhibition (IC50) came to 430 nM.

The compound `CC(C)C[C@H](NC(=O)[C@@H](N)CC(C)C)C(=O)N[C@@H](CO)C(=O)N[C@H](C(=O)N1CCC[C@H]1C(=O)N1CCC[C@H]1C(=O)N[C@@H](CC(C)C)C(=O)N[C@@H](CO)C(=O)N1CCC[C@H]1C(=O)N[C@@H](CO)C(=O)O)[C@@H](C)O` (H-LLSTPPLSPS-OH; N-terminus and C-terminus assumed) displayed an IC50 of 1770 nM.

Still in this assay, the particulars now being: allele A02.01; read-out: Observed Affinity (IC50; (nM)).
Consider `CSCC[C@H](NC(=O)[C@H](CCCCN)NC(=O)[C@H](CCCNC(=N)N)NC(=O)[C@H](CC(C)C)NC(=O)[C@H](CC(N)=O)NC(=O)[C@H](CC(C)C)NC(=O)[C@H](CCCNC(=N)N)NC(=O)[C@H](CC(C)C)NC(=O)[C@H](CC(C)C)NC(=O)[C@@H](N)CCSC)C(=O)O`, for which the IC50 was 2510 nM.

On to `CC[C@H](C)[C@H](NC(=O)[C@H](CCSC)NC(=O)[C@@H](NC(=O)CNC(=O)[C@@H](NC(=O)[C@@H](N)CCC(N)=O)[C@@H](C)O)C(C)C)C(=O)N[C@@H](CS)C(=O)N[C@@H](C)C(=O)N[C@@H](Cc1ccc(O)cc1)C(=O)N[C@@H](CC(C)C)C(=O)O` (H-QTGVMICAYL-OH; N-terminus and C-terminus assumed), for which the IC50 is 9760 nM.

With `CC(C)C[C@H](NC(=O)[C@H](CO)NC(=O)[C@H](CC(N)=O)NC(=O)[C@H](CS)NC(=O)[C@H](CCC(=O)O)NC(=O)[C@H](Cc1c[nH]cn1)NC(=O)[C@H](CC(C)C)NC(=O)[C@@H](NC(=O)[C@H](CCC(N)=O)NC(=O)[C@@H](N)CC(C)C)C(C)C)C(=O)O`, the half-maximal inhibitory concentration (IC50) was determined as 4720 nM.

As to `CC(C)[C@H](NC(=O)[C@H](CO)NC(=O)[C@H](CS)NC(=O)[C@H](CO)NC(=O)[C@H](CCCCN)NC(=O)[C@@H](NC(=O)[C@H](CCC(=O)O)NC(=O)[C@H](Cc1ccccc1)NC(=O)[C@H](Cc1ccccc1)NC(=O)[C@@H](N)Cc1ccccc1)[C@@H](C)O)C(=O)O` (H-FFFETKSCSV-OH; N-terminus and C-terminus assumed), the IC50 was found to be 61.2 nM.

Take `CSCC[C@H](NC(=O)[C@H](C)NC(=O)[C@H](CO)NC(=O)[C@H](CCSC)NC(=O)[C@H](CC(C)C)NC(=O)[C@H](C)N)C(=O)N[C@H](C(=O)N[C@H](C(=O)N[C@@H](CO)C(=O)O)[C@@H](C)O)[C@@H](C)O` (H-ALMSAMTTS-OH; N-terminus and C-terminus assumed): the IC50 was 139 nM.

Take `CC(C)C[C@H](NC(=O)[C@@H](N)CC(C)C)C(=O)N[C@@H](CCC(N)=O)C(=O)N[C@H](C(=O)N[C@H](C(=O)N[C@@H](CCC(N)=O)C(=O)N[C@H](C(=O)N[C@@H](CO)C(=O)N[C@@H](Cc1ccccc1)C(=O)N[C@@H](C)C(=O)O)[C@@H](C)O)[C@@H](C)O)C(C)C` (H-LLQVTQTSFA-OH; N-terminus and C-terminus assumed): the IC50 stood at 677 nM.

Regarding `CC(C)C[C@H](NC(=O)[C@H](C)N)C(=O)N[C@@H](Cc1c[nH]c2ccccc12)C(=O)N[C@@H](CCC(=O)O)C(=O)N[C@@H](CS)C(=O)N[C@@H](CO)C(=O)N[C@@H](CC(C)C)C(=O)N1CCC[C@H]1C(=O)N[C@@H](CCC(N)=O)C(=O)N[C@@H](C)C(=O)O` (H-ALWECSLPQA-OH; N-terminus and C-terminus assumed), the IC50 was determined as 9 nM.

With `CC[C@H](C)[C@H](NC(=O)[C@@H](NC(=O)[C@@H](NC(=O)[C@H](CC(C)C)NC(=O)[C@@H](NC(=O)[C@@H]1CCCN1C(=O)[C@H](CCCNC(=N)N)NC(=O)[C@H](CCC(N)=O)NC(=O)[C@@H](N)CC(N)=O)[C@@H](C)CC)[C@@H](C)O)[C@@H](C)CC)C(=O)O` (H-NQRPILTII-OH; N-terminus and C-terminus assumed), the IC50 amounted to 9610 nM.

Regarding `CC[C@H](C)[C@H](N)C(=O)N[C@@H](CC(C)C)C(=O)N[C@@H](CCSC)C(=O)N[C@@H](CCC(=O)O)C(=O)N[C@@H](CC(C)C)C(=O)N[C@@H](CCSC)C(=O)N[C@@H](C)C(=O)NCC(=O)NCC(=O)N[C@@H](CC(=O)O)C(=O)O` (H-ILMELMAGGD-OH; N-terminus and C-terminus assumed), the IC50 worked out at 3450 nM.

Turning to `CC(C)C[C@H](NC(=O)[C@H](C)N)C(=O)N[C@@H](CCC(=O)O)C(=O)N[C@@H](CCC(=O)O)C(=O)N[C@@H](CCCCN)C(=O)N[C@@H](CCCCN)C(=O)NCC(=O)N[C@@H](CC(N)=O)C(=O)N[C@@H](Cc1ccc(O)cc1)C(=O)N[C@H](C(=O)O)C(C)C` (H-ALEEKKGNYV-OH; N-terminus and C-terminus assumed), the IC50 worked out at 141 nM.

Turning to `CC[C@H](C)[C@H](N)C(=O)N[C@@H](CCC(N)=O)C(=O)N[C@@H](CC(C)C)C(=O)N[C@@H](CCC(N)=O)C(=O)N[C@@H](CC(=O)O)C(=O)N[C@@H](CCCCN)C(=O)N[C@@H](Cc1ccccc1)C(=O)N[C@@H](CCC(=O)O)C(=O)N[C@@H](Cc1c[nH]cn1)C(=O)N[C@@H](CC(C)C)C(=O)O`, the IC50 is 4270 nM.

For the compound `CC(C)C[C@H](NC(=O)[C@H](C)N)C(=O)N[C@@H](CCC(N)=O)C(=O)N1CCC[C@H]1C(=O)N[C@@H](CC(C)C)C(=O)N[C@@H](CCC(N)=O)C(=O)N1CCC[C@H]1C(=O)N[C@@H](Cc1c[nH]cn1)C(=O)N[C@@H](C)C(=O)O` (H-ALQPLQPHA-OH; N-terminus and C-terminus assumed), the IC50 was found to be 604 nM.

For `CC(C)C[C@H](NC(=O)[C@H](CCCNC(=N)N)NC(=O)[C@@H](NC(=O)[C@H](CC(C)C)NC(=O)[C@H](CO)NC(=O)[C@@H](N)CCCCN)C(C)C)C(=O)N[C@@H](CO)C(=O)N[C@@H](CO)C(=O)N[C@@H](CS)C(=O)N[C@H](C(=O)O)C(C)C` (H-KSLVRLSSCV-OH; N-terminus and C-terminus assumed), the IC50 worked out at 280 nM.

For `CC[C@H](C)[C@H](NC(=O)[C@H](CC(=O)O)NC(=O)[C@H](CC(C)C)NC(=O)[C@H](CC(C)C)NC(=O)[C@H](Cc1ccccc1)NC(=O)[C@H](Cc1ccccc1)NC(=O)[C@H](C)NC(=O)[C@@H](NC(=O)[C@@H](NC(=O)[C@@H](N)Cc1ccc(O)cc1)[C@@H](C)CC)[C@@H](C)O)C(=O)O` (H-YITAFFLLDI-OH; N-terminus and C-terminus assumed), the IC50 stood at 64.5 nM.

Regarding `CC[C@H](C)[C@H](NC(=O)[C@@H]1CCCN1C(=O)[C@H](CCCNC(=N)N)NC(=O)[C@H](CCCNC(=N)N)NC(=O)[C@H](CC(N)=O)NC(=O)[C@H](CCSC)NC(=O)[C@@H](N)CO)C(=O)N[C@@H](CC(C)C)C(=O)N[C@H](C(=O)O)[C@@H](C)O`, the 50% inhibitory concentration (IC50) amounted to 3840 nM.

With `CC[C@H](C)[C@H](NC(=O)[C@H](Cc1ccc(O)cc1)NC(=O)[C@H](CCC(=O)O)NC(=O)CNC(=O)[C@H](CO)NC(=O)[C@H](Cc1ccccc1)NC(=O)[C@H](C)N)C(=O)N1CCC[C@H]1C(=O)N[C@H](C(=O)N[C@H](C(=O)O)C(C)C)[C@@H](C)O` (H-AFSGEYIPTV-OH; N-terminus and C-terminus assumed), the 50% inhibitory concentration (IC50) is 781 nM.

In the case of `CC[C@H](C)[C@H](NC(=O)[C@H](Cc1ccccc1)NC(=O)[C@H](CCCNC(=N)N)NC(=O)[C@@H]1CCCN1C(=O)[C@H](CC(C)C)NC(=O)[C@H](CO)NC(=O)[C@H](CCC(N)=O)NC(=O)[C@@H](N)CC(C)C)C(=O)N[C@@H](CC(C)C)C(=O)N[C@@H](CCSC)C(=O)O`, the IC50 was 413 nM.

Regarding `CC(C)C[C@H](NC(=O)[C@H](CO)NC(=O)[C@@H](NC(=O)[C@@H](NC(=O)[C@H](CO)NC(=O)[C@H](CO)NC(=O)[C@H](Cc1c[nH]c2ccccc12)NC(=O)[C@H](CCC(N)=O)NC(=O)[C@@H](N)CCCCN)C(C)C)[C@@H](C)O)C(=O)O` (H-KQWSSVTSL-OH; N-terminus and C-terminus assumed), the IC50 stood at 26.5 nM.

On to `CC(C)C[C@H](NC(=O)[C@H](C)NC(=O)[C@H](CC(C)C)NC(=O)[C@H](CC(C)C)NC(=O)[C@@H](N)Cc1ccccc1)C(=O)N[C@@H](Cc1c[nH]c2ccccc12)C(=O)N[C@@H](CCC(=O)O)C(=O)N[C@@H](CS)C(=O)N[C@@H](CO)C(=O)O` (H-FLLALWECS-OH; N-terminus and C-terminus assumed), for which the 50% inhibitory concentration (IC50) is 93.2 nM.

Consider `CC(C)C[C@H](NC(=O)CNC(=O)[C@H](Cc1c[nH]c2ccccc12)NC(=O)[C@H](CC(=O)O)NC(=O)[C@H](CCCCN)NC(=O)CNC(=O)[C@H](CCC(N)=O)NC(=O)[C@@H](NC(=O)[C@@H](N)Cc1ccccc1)C(C)C)C(=O)O`, for which the IC50 came out at 34 nM.

As to `CC[C@H](C)[C@H](NC(=O)[C@@H](N)CC(C)C)C(=O)N[C@H](C(=O)N[C@@H](CO)C(=O)N[C@@H](CCCNC(=N)N)C(=O)N[C@H](C(=O)N[C@@H](CC(C)C)C(=O)N[C@@H](CC(C)C)C(=O)N[C@@H](CC(C)C)C(=O)O)[C@@H](C)O)C(C)C`, the IC50 is 173 nM.

For the compound `CC[C@H](C)[C@H](NC(=O)[C@H](CC(C)C)NC(=O)[C@@H]1CCCN1C(=O)[C@H](Cc1ccccc1)NC(=O)[C@H](CC(C)C)NC(=O)[C@@H](N)CCC(=O)O)C(=O)N[C@@H](Cc1ccccc1)C(=O)N1CCC[C@H]1C(=O)N[C@@H](C)C(=O)O`, the IC50 stood at 13 nM.
